{"source": "patent US20210230662A1", "about": "“Methods for the Treatment of Solid Tumor Cancers Using Illudins and Biomarkers” (Lantern Pharma Inc., priority 2018, published 2021)", "origin": "cited, not measured here", "key": {"tumor cells": {"system": "tumor cells", "conditions": "at certain doses"}, "normal cells": {"system": "normal cells", "conditions": "at certain doses"}}, "data": [{"smiles": "CC1=C(CO)C2=C(C)C3(CC3)[C@@](C)(O)C(=O)C2=C1", "note": "[Irofulven, HydroxyMethylAcylfulvene]", "values": [{"measurement": "susceptibility of tumor cells to dual damaging activity", "setting": "tumor cells", "result": "highly susceptible"}, {"measurement": "response of normal cells to the cell-killing drug", "setting": "normal cells", "result": "marginal response"}]}]}
